Source: PubChem BioAssay AID248 (DTP/NCI, 2004)
Toxic doses and inconclusive results are not listed. Cut-off read from the data, not from the text of the source: active = T/C of 150% or more; inactive = T/C below 125%.

System: L1210 leukemia ip in BDF1 mice, survival T/C
Experiment: NCI In Vivo Anticancer Drug Screen. Data for tumor model L1210 Leukemia (intraperitoneal) in B6D2F1 (BDF1) mice
Conditions: endpoint: mean survival time, higher = longer survival
Outline: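 Transplantable tumor model; survival measured in treated vs vehicle control mice. Value = treated/control.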

[1] = dose: 50.0 mg/kg/injection, schedule: Q04DX003 (ip), vehicle: Klucel (hydroxypropylcellulose) (HPC)
[2] = dose: 100.0 mg/kg/injection, schedule: Q01DX009 (ip), vehicle: Klucel (hydroxypropylcellulose) (HPC)
[3] = dose: 100.0 mg/kg/injection, schedule: Q04DX003 (ip), vehicle: Klucel (hydroxypropylcellulose) (HPC)
[4] = dose: 200.0 mg/kg/injection, schedule: Q01DX009 (ip), vehicle: Klucel (hydroxypropylcellulose) (HPC)
[5] = dose: 200.0 mg/kg/injection, schedule: Q04DX003 (ip), vehicle: Klucel (hydroxypropylcellulose) (HPC)
[6] = dose: 400.0 mg/kg/injection, schedule: Q01DX009 (ip), vehicle: Klucel (hydroxypropylcellulose) (HPC)
[7] = dose: 400.0 mg/kg/injection, schedule: Q04DX003 (ip), vehicle: Klucel (hydroxypropylcellulose) (HPC)
[8] = dose: 100.0 mg/kg/injection, schedule: Q01DX001 (ip), vehicle: other
[9] = dose: 200.0 mg/kg/injection, schedule: Q01DX001 (ip), vehicle: other
[10] = dose: 400.0 mg/kg/injection, schedule: Q01DX001 (ip), vehicle: other

Measured: T/C

C=C(Br)CN(CC)CC
inactive: dose: 12.5 mg/kg/injection, schedule: Q01DX009 (ip), vehicle: Klucel (hydroxypropylcellulose) (HPC) 90 % of control | dose: 12.5 mg/kg/injection, schedule: Q04DX003 (ip), vehicle: Klucel (hydroxypropylcellulose) (HPC) 100 % of control | dose: 25.0 mg/kg/injection, schedule: Q01DX009 (ip), vehicle: Klucel (hydroxypropylcellulose) (HPC) 91 % of control | dose: 25.0 mg/kg/injection, schedule: Q04DX003 (ip), vehicle: Klucel (hydroxypropylcellulose) (HPC) 107 % of control | [1] 96 % of control

CCc1c(C)nnn1-c1ccccc1
inactive: dose: 75.0 mg/kg/injection, schedule: Q01DX001 (ip), vehicle: saline 94 % of control | dose: 150.0 mg/kg/injection, schedule: Q01DX001 (ip), vehicle: saline 91 % of control

Cc1cccc(Cl)c1NC(N)=O
inactive: [2] 102 % of control | [3] 103 % of control | [4] 102 % of control | [5] 94 % of control | [6] 97 % of control | [7] 95 % of control

CC(C)N1CSC(=S)N(Cc2ccccc2)C1
inactive: dose: 50.0 mg/kg/injection, schedule: Q01DX009 (ip), vehicle: Klucel (hydroxypropylcellulose) (HPC) 108 % of control | [2] 92 % of control | [3] 98 % of control | [4] 91 % of control | [5] 95 % of control | [6] 94 % of control | [7] 90 % of control

CS(=O)(=O)SCc1ccc([N+](=O)[O-])cc1
inactive: dose: 15.0 mg/kg/injection, schedule: Q01DX001 (ip), vehicle: carboxymethylcellulose (CMC) 114 % of control | dose: 30.0 mg/kg/injection, schedule: Q01DX001 (ip), vehicle: carboxymethylcellulose (CMC) 101 % of control | dose: 60.0 mg/kg/injection, schedule: Q01DX001 (ip), vehicle: carboxymethylcellulose (CMC) 97 % of control

O=C1c2cc([N+](=O)[O-])ccc2-c2cc(F)ccc21
inactive: dose: 50.0 mg/kg/injection, schedule: Q01DX001 (ip), vehicle: carboxymethylcellulose (CMC) 104 % of control | dose: 100.0 mg/kg/injection, schedule: Q01DX001 (ip), vehicle: carboxymethylcellulose (CMC) 95 % of control | dose: 200.0 mg/kg/injection, schedule: Q01DX001 (ip), vehicle: carboxymethylcellulose (CMC) 93 % of control | dose: 400.0 mg/kg/injection, schedule: Q01DX001 (ip), vehicle: carboxymethylcellulose (CMC) 90 % of control

CC(=O)Nc1cccc(OCCCOc2cccc(C#N)c2)c1
inactive: [3] 96 % of control | [5] 101 % of control | [7] 98 % of control

COc1ccc(C2CCCCCC2OC(=O)c2ccc([N+](=O)[O-])cc2)c(OC)c1OC (configuration not stated)
inactive: [8] 96 % of control | [9] 106 % of control | [10] 96 % of control

O=C(c1ccc(Cl)cc1)c1ccc(Cl)cc1
inactive: [3] 105 % of control | [5] 100 % of control | [7] 96 % of control

CSc1nc(N)n(C)n1
inactive: dose: 100.0 mg/kg/injection, schedule: Q04DX002 (ip), vehicle: saline 123 % of control | dose: 200.0 mg/kg/injection, schedule: Q04DX002 (ip), vehicle: saline 104 % of control | dose: 400.0 mg/kg/injection, schedule: Q04DX002 (ip), vehicle: saline 93 % of control

O=C(NC1CCCCC1)c1ccc(Cl)cc1
inactive: dose: 100.0 mg/kg/injection, schedule: Q01DX001 (ip), vehicle: Klucel (hydroxypropylcellulose) (HPC) 105 % of control | [3] 94 % of control | dose: 200.0 mg/kg/injection, schedule: Q01DX001 (ip), vehicle: Klucel (hydroxypropylcellulose) (HPC) 89 % of control | [5] 105 % of control | dose: 400.0 mg/kg/injection, schedule: Q01DX001 (ip), vehicle: Klucel (hydroxypropylcellulose) (HPC) 105 % of control | [7] 102 % of control

CC(=O)/C=C/c1ccccc1O
inactive: dose: 75.0 mg/kg/injection, schedule: Q04DX002 (ip), vehicle: gum acacia 98 % of control | dose: 150.0 mg/kg/injection, schedule: Q04DX002 (ip), vehicle: gum acacia 100 % of control | dose: 300.0 mg/kg/injection, schedule: Q04DX002 (ip), vehicle: gum acacia 100 % of control

CO/C=C(\C)C(=O)O
inactive: [8] 102 % of control | [9] 98 % of control | [10] 93 % of control

CC1=C/C(=N\N2CCOCC2)C(C(O)(C(F)(F)F)C(F)(F)F)C(C)(C)C1 (configuration not stated)
inactive: dose: 100.0 mg/kg/injection, schedule: Q04DX003 (ip), vehicle: saline 98 % of control | dose: 200.0 mg/kg/injection, schedule: Q04DX003 (ip), vehicle: saline 98 % of control | dose: 400.0 mg/kg/injection, schedule: Q04DX003 (ip), vehicle: saline 96 % of control

COc1ccccc1/C=C/[N+](=O)[O-]
inactive: [1] 95 % of control | [3] 101 % of control

CC(=O)CC(=O)NCC(CCN(C)C)(c1cccc2ccccc12)C(C)C (configuration not stated)
inactive: dose: 12.5 mg/kg/injection, schedule: Q04DX003 (ip), vehicle: saline 105 % of control | dose: 25.0 mg/kg/injection, schedule: Q04DX003 (ip), vehicle: saline 97 % of control | dose: 50.0 mg/kg/injection, schedule: Q04DX003 (ip), vehicle: saline 99 % of control

CC(=O)Nc1ccc(S(=O)(=O)O)c(OC(C)=O)c1
inactive: dose: 100.0 mg/kg/injection, schedule: Q01DX001 (ip), vehicle: saline 100 % of control | dose: 200.0 mg/kg/injection, schedule: Q01DX001 (ip), vehicle: saline 93 % of control | dose: 400.0 mg/kg/injection, schedule: Q01DX001 (ip), vehicle: saline 114 % of control
